In one assay the test system is gene expression in liver. Briefly: Quantitative real-time PCR gene expression in liver of obese, insulin resistant Wistar rats. It is filed as in vivo. The method, then:
Three week old male rats were fed a high fat diet for 24 weeks to induce obesity and insulin resistance. Thereafter, rats were treated with 0.3 mg/kg Rx-1 daily for two weeks, and then with 3 mg/kg Rx-1 daily for seven days. Fasting glucose concentrations were measured before treatment, after two weeks treatment with 0.3 mg/kg Rx-1 and then again after seven days treatment with 3 mg/kg Rx-1. After treatment with 3 mg/kg Rx-1 rats were terminated and liver, muscle and pancreas biopsies were taken. Quantitative real-time PCR was used to measure the expression of 12 genes in liver and muscle samples, and ten genes in pancreas samples.
Rats were housed at the Primate Unit (Medical Research Council, South Africa). Rat management including feeding, glucose measurements and terminations, were done according to standard operating procedures (Diabetes Discovery Platform, Medical Research Council). Briefly, three week old rats were fed a high fat diet for 24 weeks to induce T2D. The study group consisted of thirteen rats, eight rats were treated by daily gavage with 0.3 mg/kg Rx-1 for two weeks, and then with 3 mg/kg Rx-1 for seven days. Five rats were used as controls and were treated with water only for three weeks. Rats were terminated after treatment and liver, muscle and pancreas tissue harvested and stored in RNalater (Ambion) as recommended by the manufacturer. The study was approved by the ethics committee of the Medical Research Council of South Africa.
Tissue was removed from RNAlater, weighed (80-100 mg), and placed in a 2 ml microfuge tube containing 1 ml of Trizol (Invitrogen) and a stainless steel bead (Qiagen). Tissue was homogenised in the TissueLyser (Qiagen) at 25 Hz for 6 min, centrifuged at 12,000 g for 10 min at 4° C., and the supernatant removed and incubated at room temperature for 5 min. Thereafter, 0.2 ml of chloroform (Sigma) was added, shaken vigorously for 15 sec, and then incubated at room temperature for 3 min with occasional mixing. Samples were centrifuged 12,000 g for 15 min at 4° C. and the aqueous phase was transferred to a new tube. RNA was precipitated by adding 0.5 ml isopropanol, mixed well for 30 sec, and placed at −20° C. overnight. The following day, tubes were centrifuged at 12,000 g for 20 min at 4° C. The pellet was washed with 1 ml of 75% ethanol and centrifuged at 12,000 g for 15 min at 4° C. The wash step was repeated. After the second wash, the pellet was air dried by placing tubes with their lids open (on ice) in a PCR cabinet for 2 hours. Excess liquid was removed by blotting tubes on paper towel occasionally during this incubation. The pellet was resuspended by adding 100 μl RNase-free water and incubating at 55° C. for 10 min. RNA concentrations were determined using a spectrophotometer (Nanodrop Technologies). Thereafter, RNA was purified with the RNeasy Mini Kit according to the manufacturer's instructions (Qiagen) and concentrations again determined with the Nanodrop. Genomic DNA was removed by treating RNA with Turbo DNA-free DNase (Ambion) and incubating at 37° C. for 90 min according to the manufacturer's instructions, but using 1.5× the units of DNase and incubation time recommended by the kit. In brief, 20 μg RNA was incubated with 1.5 μl (3 units) DNase, 5 μl DNase buffer, and nuclease-free water in a final reaction volume of 50 μl for 45 min at 37° C., thereafter, another 3 units of DNase was added and incubated for a further 45 min. DNase was inactivated by adding ⅕ volume (10 μl) of the DNase inactivation reagent supplied with the kit. Reactions were incubated at room temperature for 2 min, and centrifuged at 14,000 rpm for 1.5 min. The supernatant was removed and RNA concentrations were measured using the Nanodrop. The quality of the DNase-treated RNA was determined with the RNA 6000 Nano kit using the 2100 Bioanalyser Lab-on-a-Chip system as recommended by the manufacturers (Agilent technologies). […]

In a further assay the test system is 3T3-L1 adipocytes. Kind of assay: Glucose uptake in transformed 3T3-L1 adipocytes (colourometric glucose oxidase method). It is filed as cell-based. The method, then: 3T3-L1 cells were transformed in culture using modified DMEM differentiation media supplemented with insulin, dexametasone and isobutylmethylxanthine and cultured for 3 days. The transformed 3T3-L1 adipocytes were then cultured for a further 5 days in modified DMEM supplemented with 10% FCS before being exposed to insulin, metformin and compounds of the present invention (see Table 1). Glucose uptake over a three (3) hour period was determined after the 5 days of treatment using a colourometric glucose oxidase method (Biovision Inc, USA).
The glucose concentration column represents the glucose concentration remaining in the media following three (3) hour exposure to the cells. The glucose uptake column represents glucose uptake from the media after a 3 hour exposure. SD represents the standard deviation. The percentage increases calculated from the relevant solvent vehicle and the P=values are reflected in the last two columns respectively.

The next assay deals with plasma glucose level. Kind of assay: Reduction in plasma glucose of a diabetic primate after a single dose (FIG. 1). The assay is classed as in vivo, monkeys. The conditions noted are these: diabetic primate M1081, baseline glucose 6.3 mmol/L, over 6 h after a single dose, 10.4 ug/kg BW.
The mark [1] stands for this setting: liver, 0.3 mg/kg two weeks then 3 mg/kg seven days.
Setting [2] is: liver, not statistically significant.

As for `O=C(O)/C(=C/c1ccccc1)O[C@@H]1O[C@H](CO)[C@@H](O)[C@H](O)[C@H]1O` [RX-1, 3-Phenyl-2-(3,4,5-trihydroxy-6-hydroxymethyl-tetrahydro-pyran-2-yloxy)-acrylic acid], the Pi3k expression entry with gene expression in liver (liver only, not significant) is recorded as “upregulated”. Also, the Gck gene expression entry in the assay with gene expression in liver (liver, 0.3 mg/kg daily two weeks then 3 mg/kg daily seven days, not statistically significant) is on record as “increased”. Also, in the assay on gene expression in liver (setting [1]), the Glut1 expression result is on record as “increased”, the Glut2 expression entry is listed as “increased”, the IR gene expression result is reported as “upregulated” and the “IRS1 mRNA levels” value is “unchanged”. Moreover, in the assay on gene expression in liver (setting [1]), the IRS2 gene expression result is “increased” and the PPARα expression result is “significantly upregulated”. In addition, in the assay on gene expression in liver (setting [2]), the GcgR gene expression entry is “increased” and the “SOCS1 mRNA expression” value is “increased”. Moreover, the “SOCS3 mRNA expression” value with gene expression in liver (liver, statistically significant) is “increased”. Further, the “glucose uptake over a 3 hour culture period” value in the assay on 3T3-L1 adipocytes (3T3-L1 adipose cells) is recorded as “significantly increased”. The compound also yielded a Glucose conc. with 3T3-L1 adipocytes (glucose remaining in the media after 3 hour exposure to the cells, media containing 8 mM glucose) of 3.19 nM/ul. The “Glucose Uptake” value with 3T3-L1 adipocytes (glucose uptake from the media after 3 hour exposure, media containing 8 mM glucose) came out at 2.86 nM/ul. Moreover, the “% uptake” value with 3T3-L1 adipocytes (relative to DMSO vehicle = 100.00, 3 hour glucose uptake) is 122.64%. Further, the “reduction in plasma glucose level” value in the assay on plasma glucose level is “reduce the blood sugar of monkeys for prolonged periods of time”.

The values are drawn from US10174065B2, “Antidiabetic enolic glucoside of phenylpyruvic acid” (ZADEC APS, priority 2010, dated 2019).
